Assay results as given in paper PMC3480797 (Indian Journal of Pharmacology, 2012).

Experiments:
[1] = type: in vivo, rats; settings: rat, i.v. nimodipine 3 mg/kg, with pravastatin 0.3 and 1 mg/kg
[2] = type: in vivo, rats; settings: rat, oral nimodipine 12 mg/kg
human CYP3A4 = human CYP3A4 (Homo sapiens, UniProt P08684); assay: biochemical
P-gp = P-gp (Homo sapiens, UniProt P08183); assay: Rhodamine-123 retention assay in P-gp overexpressing MCF-7/ADR cells; type: cell-based; settings: 10 to 100 μM, 90 min, 20 μM rhodamine-123, MCF-7/ADR cells
Chain of P-gp (P08183 whole entry): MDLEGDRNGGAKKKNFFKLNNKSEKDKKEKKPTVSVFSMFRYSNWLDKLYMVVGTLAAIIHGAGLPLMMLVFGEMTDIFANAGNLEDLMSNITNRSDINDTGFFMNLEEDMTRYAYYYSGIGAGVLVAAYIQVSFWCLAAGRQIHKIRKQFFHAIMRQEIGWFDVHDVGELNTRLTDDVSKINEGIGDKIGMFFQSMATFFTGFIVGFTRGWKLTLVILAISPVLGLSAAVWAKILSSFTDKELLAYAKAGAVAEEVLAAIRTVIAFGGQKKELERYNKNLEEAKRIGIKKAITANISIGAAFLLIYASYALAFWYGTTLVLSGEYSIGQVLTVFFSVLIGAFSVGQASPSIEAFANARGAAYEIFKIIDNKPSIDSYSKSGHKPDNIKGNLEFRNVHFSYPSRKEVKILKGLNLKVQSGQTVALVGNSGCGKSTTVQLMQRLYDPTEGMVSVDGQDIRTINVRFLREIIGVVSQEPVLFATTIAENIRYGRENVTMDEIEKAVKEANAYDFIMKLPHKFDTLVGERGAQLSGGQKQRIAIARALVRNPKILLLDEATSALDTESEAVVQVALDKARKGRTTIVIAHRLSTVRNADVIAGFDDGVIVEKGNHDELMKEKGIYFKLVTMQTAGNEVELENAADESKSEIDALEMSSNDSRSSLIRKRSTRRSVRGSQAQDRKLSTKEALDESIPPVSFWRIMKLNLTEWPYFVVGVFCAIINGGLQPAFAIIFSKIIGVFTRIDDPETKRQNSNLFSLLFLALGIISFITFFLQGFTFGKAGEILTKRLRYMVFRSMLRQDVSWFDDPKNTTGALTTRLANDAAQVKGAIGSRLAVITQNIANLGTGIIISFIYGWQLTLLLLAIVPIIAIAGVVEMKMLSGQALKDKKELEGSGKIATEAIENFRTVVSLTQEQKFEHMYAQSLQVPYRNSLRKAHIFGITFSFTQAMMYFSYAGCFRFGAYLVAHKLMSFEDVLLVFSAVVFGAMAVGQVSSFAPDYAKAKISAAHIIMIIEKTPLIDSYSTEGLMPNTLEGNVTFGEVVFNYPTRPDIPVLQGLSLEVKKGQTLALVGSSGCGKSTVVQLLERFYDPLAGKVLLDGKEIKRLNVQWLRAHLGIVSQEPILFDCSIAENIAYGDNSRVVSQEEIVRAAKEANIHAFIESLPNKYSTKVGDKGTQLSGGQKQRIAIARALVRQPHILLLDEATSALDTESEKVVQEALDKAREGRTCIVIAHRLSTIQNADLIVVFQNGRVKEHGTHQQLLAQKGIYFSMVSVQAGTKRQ

Chain of human CYP3A4 (P08684 whole entry): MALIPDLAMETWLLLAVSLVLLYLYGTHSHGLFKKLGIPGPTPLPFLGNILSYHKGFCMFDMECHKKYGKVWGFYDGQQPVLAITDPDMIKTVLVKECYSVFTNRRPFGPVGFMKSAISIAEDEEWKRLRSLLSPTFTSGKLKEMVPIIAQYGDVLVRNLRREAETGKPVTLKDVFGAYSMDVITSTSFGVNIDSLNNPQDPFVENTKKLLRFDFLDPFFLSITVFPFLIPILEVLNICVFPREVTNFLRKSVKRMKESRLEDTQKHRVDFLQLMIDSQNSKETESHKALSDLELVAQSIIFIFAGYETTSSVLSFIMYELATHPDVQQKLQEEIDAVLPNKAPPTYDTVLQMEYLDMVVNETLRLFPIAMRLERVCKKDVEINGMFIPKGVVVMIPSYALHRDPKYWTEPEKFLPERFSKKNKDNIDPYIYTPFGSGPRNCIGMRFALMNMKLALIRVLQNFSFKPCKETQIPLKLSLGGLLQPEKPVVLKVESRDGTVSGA

Row | effect of concurrent pravastatin on the pharmacokinetics of i.v. nimodipine [1] | increase of AUC0-∞ compared with the control group ([2]; with 1 mg/kg pravastatin, P < 0.05) [%] | increase of AB compared with the oral control group ([2]; with pravastatin (1 mg/kg)) [%] | IC50 (human CYP3A4) [µM] | Compound | effect on P-gp activity (cellular uptake of rhodamine-123) (P-gp)
1 | not affected | 30.9 | 31.1 |  | COCCOC(=O)C1=C(C)NC(C)=C(C(=O)OC(C)C)C1c1cccc([N+](=O)[O-])c1 (centres unmarked) [nimodipine, Nimodipine] | 
2 |  |  |  | 14 | CC[C@H](C)C(=O)O[C@H]1C[C@H](O)C=C2C=C[C@H](C)[C@H](CC[C@@H](O)C[C@@H](O)CC(=O)O)[C@H]21 [pravastatin, Pravastatin] | did not significantly inhibit P-gp activity
